Read-outs that look alike come from different tables or passages of the source.
Tests used:
in vitro = settings: human; for efflux ratio at 120 min, 10 µM: Caco-2, pH 7.4; for Papp at 120 min, 10 µM: Caco-2, pH 7.4, Mean ± SE Papp
Text: Next, we tested the permeation of the compounds across polarized Caco-2 cell monolayers, a method that is widely used as an in vitro model of the human small intestinal mucosa to predict the absorption of orally administered drugs ([63], [64]). With noninvasive intestinal infections, there is no need to establish a high plasma concentration. Since a high rate of uptake through the host gut lining could increase compound toxicity, we sought to reduce gut absorption. […] Both apical-to-basal and basal-to-apical permeation values were measured to obtain information about efflux. […] The efflux machinery is currently unknown.
Passage 36 Caco-2 cells were used. The cells were cultured in Dulbecco’s modified Eagle’s medium (DMEM; 5 ml of 100 mM sodium pyruvate, 5 ml of 100× nonessential amino acids, 5 ml of penicillin-streptomycin, and 100 ml of heat-inactivated fetal bovine serum added to 385 ml of DMEM aseptically and mixed thoroughly), pH 7.4, at 37°C in 5% CO2. DMEM (250 μl) was added to the basal compartment of 96-well multiscreen Caco-2 cell plate consisting of high-pore-density polycarbonate (Millipore) with a 0.4-μm pore size and a 0.11-cm^2 active membrane area. The cells were seeded at a density of 12,000 cells/well (0.16 × 10^6 cells/ml) in the apical wells, with one well containing only medium as blank. The Caco-2 cell plate was placed in a CO2 incubator at 37°C for cell proliferation. On the day of assay, the medium was removed, washed twice with Hanks balanced salt solution (HBSS) buffer supplemented with 2% bovine serum albumin (BSA), pH 7.4, and incubated with the HBSS buffer for 30 min at 37°C. Wells with transepithelial electrical resistance values of greater than 230 Ω · cm^2 were selected for the experiments. […] The assay was performed in duplicate.
Seventy-five microliters of the test compounds was added to the apical wells, and 250 μl of HBSS buffer with 2% BSA was added to the basal wells. The plate was incubated in a CO2 incubator with shaking on a plate shaker at 150 rpm for 120 min, after which 25 μl of the basal samples was collected and processed.
Two hundred fifty microliters of test compounds was added to the basal wells, and 75 μl of HBSS buffer with 2% BSA was added to the apical wells. The plate was incubated in a CO2 incubator with shaking on a plate shaker at 150 rpm for 120 min, after which 25 μl of the apical samples was collected and processed.
For sample processing, a single-point calibration curve in HBSS buffer with 2% BSA was used. Donor samples were diluted 1:1 with HBSS containing 2% BSA, and receiver samples were diluted with 1:1 HBSS buffer and precipitated with 200 μl of acetonitrile containing internal standard. The samples were vortexed for 5 min at 1,000 rpm and centrifuged at 4,000 rpm for 10 min. One hundred microliters of the supernatant was diluted with 200 μl of water and analyzed by LC-MS/MS (with a Shimadzu ultrafast liquid chromatograph and an API 4000 LC-MS/MS system).
The apparent permeation coefficients (Papp) were calculated as Papp = (dQ/dT) × (1/C0) × (1/A), where dQ is the amount permeated to the receiver compartment of the 96-well plate, dT is the time of compound incubation, C0 is the initial compound concentration in the donor compartment of the well, and A is the surface area of the monolayer.

pH 3 degradation test = format: physicochemical
Description: The dramatic improvement in stability is not surprising, because the ester group of fumagillin is susceptible to hydrolysis at low pH. […] This should enable the administration of lower doses, reducing toxicity risks.
For accelerated temperature degradation tests at 75% relative humidity and at laboratory uncontrolled relative humidity, fumagillin and compounds 3 and 9 were incubated at 37°C under either controlled or uncontrolled humidity, and the samples were analyzed by HPLC every week for 4 weeks. Measurements were made in duplicate. Area-under-the-curve values were calculated to derive the percentage of compound remaining. For pH degradation, the compounds were dissolved in DMSO and mixed with pH 3.0 buffer. The samples were incubated at 25°C for up to 48 h. Samples were analyzed by HPLC every 2 h for the first 8 h and then after 24 and 48 h.

human MetAP2 = molecular target: T1, human MetAP2 (Homo sapiens, UniProt P50579); assay: MetAP2 fluorescence assay; format: biochemical; settings: for IC50 of compound/IC50 of fumagillin: human MetAP2
T1 construct: purchased Bio-Techne/R&D Systems
T1 sequence (P50579 whole entry): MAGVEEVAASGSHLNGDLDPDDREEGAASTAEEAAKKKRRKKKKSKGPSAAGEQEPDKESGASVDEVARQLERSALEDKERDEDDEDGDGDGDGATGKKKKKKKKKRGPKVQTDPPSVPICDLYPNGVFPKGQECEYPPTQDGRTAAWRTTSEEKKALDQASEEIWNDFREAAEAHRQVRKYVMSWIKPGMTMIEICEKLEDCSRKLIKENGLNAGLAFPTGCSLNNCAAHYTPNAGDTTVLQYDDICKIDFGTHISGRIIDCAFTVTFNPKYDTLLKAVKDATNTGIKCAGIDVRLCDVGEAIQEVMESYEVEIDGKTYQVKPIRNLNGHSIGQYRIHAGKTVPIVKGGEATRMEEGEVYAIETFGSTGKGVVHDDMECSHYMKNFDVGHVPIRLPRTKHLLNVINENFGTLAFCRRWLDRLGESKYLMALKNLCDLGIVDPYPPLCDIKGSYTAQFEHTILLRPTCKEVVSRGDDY
Description: Based on the available crystal structures of MetAP2 complexes, the fumagillol core binds in a crowded environment, forming exquisite electrostatic interactions. Therefore, there is little room for the core fumagillol scaffold to adopt a different mode of binding. In contrast, the R group at C-6 can vary substantially because it is mostly solvent exposed. The L groups bind in a narrow site at the active-site entrance.
Recombinant human MetAP2 (Bio-Techne/R&D Systems) was diluted to 10 μg/ml in the assay buffer (50 mM HEPES, 0.1 mM CoCl2, 100 mM NaCl, pH 7.5). The substrate H-Met-Gly-Pro-7-amido-4-methylcoumarin (Bio-Techne/R&D Systems) was diluted to 500 μM with 2 μg/ml of the coupling enzyme, recombinant human dipeptidyl peptidase 4 (Bio-Techne/R&D Systems), in assay buffer. Fifty microliters of 10-μg/ml recombinant human MetAP2 was loaded into a flat-bottom black 96-well plate (Greiner Bio), and the reaction was initiated by adding 50 μl of the substrate/dipeptidyl peptidase 4 mixture. The reaction mixture was incubated at room temperature for 10 min, and the fluorescence was measured for 5 min at excitation and emission wavelengths of 380 nm and 460 nm, respectively, in the kinetic mode. For IC50 determination, 0.5 μl inhibitor solution was added to the reaction mixture. […] The reaction rates were fitted to a 4-parameter logistic nonlinear regression model using the KaleidaGraph tool, yielding the IC50 values and standard error.

[1] = recombinant human MetAP2, fluorescence assay, read-out: Mean ± SE IC50, inhibition of human MetAP2

Compound | efflux ratio at 120 min, 10 µM (in vitro) | Papp at 120 min, 10 µM (in vitro; apical to basal) [×10⁻⁶ cm/s] | Papp at 120 min, 10 µM (in vitro; basal to apical) [×10⁻⁶ cm/s] | half-life (pH 3 degradation test; buffer, pH 3) [h] | IC50 of compound/IC50 of fumagillin (human MetAP2) | IC50 (human MetAP2; [1]) [nM] | IC50 (human MetAP2) [nM] | Papp at 120 min, 10 µM (in vitro; apical to basal, Caco-2, 10 μM, 120 min) [×10⁻⁶ cm/s] | Papp at 120 min, 10 µM (in vitro; basal to apical, Caco-2, 10 μM, 120 min) [×10⁻⁶ cm/s] | half-life (pH 3 degradation test; pH 3.0 buffer, pH 3, 25°C, read-out: Mean ± SE half-life at pH 3 and 25°C (converted)) [h]
COC1C(OC(=O)NC(=O)CN2CCOCC2)CCC2(CO2)C1C1(C)OC1CC=C(C)C (stereo not shown) [Compound 3] | 1.95 | 15.8 ± 0.94 | 30.4 ± 4.35 | 17.2 ± 2.26 | 1.68 | 0.67 ± 0.02 |  |  |  | 
CO[C@@H]1[C@H](OC(=O)Nc2ccc(C(=O)O)cc2)CC[C@]2(CO2)[C@H]1[C@@]1(C)O[C@@H]1CC=C(C)C [Compound 9, 4-(((((3R,4S,5S,6R)-5-methoxy-4-((2R,3R)-2-methyl-3-(3-methylbut-2-en-1-yl)oxiran-2-yl)-1-oxaspiro[2.5]octan-6-yl)oxy)carbonyl)amino)benzoic acid] |  | 12.6 ± 0.63 | 23.6 ± 8.14 | 43.2 ± 1.45 |  |  | 1.1 ± 0.3 |  |  | 
CO[C@@H]1[C@H](OC(=O)/C=C/C=C/C=C/C=C/C(=O)O)CC[C@]2(CO2)[C@H]1[C@@]1(C)O[C@@H]1CC=C(C)C [Fumagillin, reference compound] | 2.13 |  |  |  | 1 | 0.4 ± 0.03 |  | 23.7 ± 2.52 | 48.8 ± 9.13 | 1.42 ± 0.05

Source: article PMC7508583, “Discovery and Preclinical Development of Antigiardiasis Fumagillol Derivatives” (Antimicrobial Agents and Chemotherapy, 2020)
